Literature values, collected in US7670617B2, “Sequential drug delivery systems” (CIMA Labs Inc., priority 2001, dated 2010).

Details: Nasal Spray

| SMILES | BIOAVAILABILITY (%) |
| --- | --- |
| O=C(O)C(O)C(O)C(=O)O.Oc1ccc2c(c1)[C@@]13CCCC[C@@]1(O)[C@@H](C2)N(CC1CCC1)CC3 [Butorphanol Tartrate] | 60%-70% |

Same assay, conditions: in vivo

| SMILES | BIOAVAILABILITY (%) |
| --- | --- |
| CCOC(=O)[C@H](CCc1ccccc1)N[C@@H](C)C(=O)N1Cc2cc(OC)c(OC)cc2C[C@H]1C(=O)O [Moexipril] | 13% |
| CC(C)(C)NCC(O)c1cc(O)cc(O)c1 (centres unmarked) [Terbutaline sulphate] | 30-70% |
| Cc1nccn1CC1CCc2c(c3ccccc3n2C)C1=O.Cl (centres unmarked) [Ondansetron:HCI] | 55% |
| Oc1ccc2c3c1O[C@H]1[C@@H](O)CC[C@@]4(O)[C@@H](C2)N(CC2CCC2)CC[C@]314 [Nalbuphine] | 16 (±8) % |
| COc1ccccc1OCCNCC(O)COc1cccc2[nH]c3ccccc3c12 (centres unmarked) [Carvedilol] | 25-35% |
| CC(C)(C)NC(=O)[C@H]1CC[C@H]2[C@@H]3CC[C@H]4NC(=O)C=C[C@]4(C)[C@H]3CC[C@]12C [Finasteride] | 63% |
| CCOC(=O)[C@H](CCc1ccccc1)N[C@H]1CCc2ccccc2N(CC(=O)O)C1=O.Cl [Benazepril:HCI] | 37% |
| CC(CCc1ccccc1)NCC(O)c1ccc(O)c(C(N)=O)c1 (centres unmarked) [Labetalol] | 18 ± 5% |
| CCOC(=O)[C@H](CCc1ccccc1)N[C@@H](C)C(=O)N1Cc2ccccc2C[C@H]1C(=O)O.Cl [Quinapril•HCI] | 60% |
| CC(C)NCC(O)COc1cccc2ccccc12.Cl (centres unmarked) [Propranolol:HCI] | 26% |
| CN(C)CCC=C1c2ccccc2COc2ccccc21 [Doxepin] | 27 ± 10% |
| CCOC(=O)[C@H](CCc1ccccc1)N[C@@H](C)C(=O)N1CCC[C@H]1C(=O)O [Enalapril] | 41-60% |
| CN1CCCC1c1cccnc1 (centres unmarked) [Nicotine] | 16.7 (±8.6%) |
| CC(C)C[C@H]1C(=O)N2CCC[C@H]2[C@]2(O)O[C@](NC(=O)[C@@H]3C=C4c5cccc6[nH]c(Br)c(c56)C[C@H]4N(C)C3)(C(C)C)C(=O)N12 [Bromocriptine] | 28% |
| COc1cc2nc(N3CCN(C(=O)C4COc5ccccc5O4)CC3)nc(N)c2cc1OC (centres unmarked) [Doxazosin] | 65% |

Details: not given

| SMILES | pKa |
| --- | --- |
| CC(C)(C)NC(=O)[C@@H]1C[C@@H]2CCCC[C@@H]2CN1C[C@@H](O)[C@H](Cc1ccccc1)NC(=O)[C@H](CC(N)=O)NC(=O)c1ccc2ccccc2n1 [Saquinavir] | 7 |
| CC(C)C[C@H]1C(=O)N2CCC[C@H]2[C@]2(O)O[C@](NC(=O)[C@@H]3C=C4c5cccc6[nH]c(Br)c(c56)C[C@H]4N(C)C3)(C(C)C)C(=O)N12 [Bromocriptine] | 4.9 |
| CN1CCc2cccc3c2[C@H]1Cc1ccc(O)c(O)c1-3 [Apomorphine] | 7 |

Details: in animals

| SMILES | BIOAVAILABILITY (%) |
| --- | --- |
| CC(NC(C)(C)C)C(=O)c1cccc(Cl)c1.Cl (centres unmarked) [Bupropion:HCI] | 5%-20% |
